Tested on: human subjects
Assay: Human olfactory psychophysics: detection thresholds (single staircase method)
Format: in vivo
Conditions: for detection threshold, RT/S84N subjects vs RT/RT controls: N=3 RT/S84N; for detection threshold, RT/P79L subjects vs RT/RT subjects: N=12 RT/P79L; for detection threshold, OR7D4 RT/WM vs RT/RT subjects: binary dilutions in propylene glycol, N=49 RT/WM, N=47 RT/RT
Description: Human olfactory psychophysics. All human subjects gave informed consent to participate in this study and were tested in a well-ventilated room. Normal human subjects (n=412; 218 female, 194 male; median age 34, age range 19-75) were pre-screened to exclude pregnant women and those with medical conditions causing general impairment of the sense of smell. All subjects completed two replicates of the test separated by at least 4 days. Odors were presented in amber vials as previously described (see, e.g., Keller, A., et al., Nat Neurosci 7, 337-338 (2004); herein incorporated by reference in its entirety) using bar-coded symbols to ensure that subjects were blind to the identity of all odors. The intensity and valence of 66 odors at two concentrations (“high” and “low”) and two solvents was rated using a 7-point scale. Thresholds were calculated using the single staircase method with seven reversals (see, e.g., Doty, R. L., et al., Chem Senses 20, 645-656 (1995); Doty, R. L. & Laing, D. G. in Handbook of Olfaction and Gustation (ed. Doty, R. L.) pp. 203-228 (Marcel Dekker, Inc., New York, 2003); each of which are herein incorporated by reference in their entireties). Threshold tests included both steroids as binary dilutions from […] (binary dilution 6) to 1: 134,217,728 (binary dilution 27). Subjects who could not reliably distinguish a 1:64 dilution of androstenone and androstadienone from solvent were operationally defined as anosmic to these odorous steroids, although it could not be excluded that these subjects could detect higher concentrations of these steroids (see, e.g., Bremner, E. A., et al., Chem Senses 28, 423-432 (2003); herein incorporated by reference in its entirety). Odor profiling used the method established by Dravnieks, et al. (see, e.g., Dravnieks, A., et al., Science 218, 799-801 (1982); herein incorporated by reference in its entirety).
For the descriptors task, the following odors and concentrations were used: propylene glcol (pure), pentadecalactone 1/500, vanillin 1/200, and androstenone 1/10,000. The following odors were used for thresholding: adrostenone and androstadienone. These were tested at an initial concentration of binary dilution 27 […] in propylene glycol and moved from there in binary steps. The range of dilutions tested was from binary dilution 27 (1:134,217,728) to binary dilution 6 (1:64). Odor vials used for intensity and valence ratings and the assigning of descriptors to odors were used for 40 sessions and then replaced by a new set. Master stocks of each odor were established at the beginning of the study to avoid intertrial variability in odor concentrations.
Threasholding. Detection thresholds (FIG. 3c and FIG. 5b-c) were determined using the “Single Staircase Threshold Detection Method” (see, e.g., Buck, L., et al., Cell 65, 175-187 (1991); Menashe, I., et al., Nat Genet. 34, 143-144 (2003); each of which are herein incorporated by reference in their entireties). This method produced very accurate data on the threshold concentration of a given dour and was easy to administer and for the subjects to perform. The thresholds for each subject on two occasions was tested at least four days apart. This helped to control for inter-trial variability in olfactory performance. The average difference between the thresholds determined on the two days was three binary dilution steps for andmstenone and five for androstadienone.
A custom computer-controlled thresholding test was administered as a self-test to each subject. Briefly, subjects were instructed to sniff two vials, one containing the solvent, the other a dilution of the odorant. Both vials have barcode labels and the procedure was done at a computer equipped with a scanner. Subjects are asked to scan the vial with the stronger odor. Depending on their answer, the procedure was repeated at an adjusted concentration. […]

Compound | detection threshold, RT/S84N subjects vs RT/RT controls | detection threshold, RT/P79L subjects vs RT/RT subjects | detection threshold, OR7D4 RT/WM vs RT/RT subjects | incidence of specific anosmia, OR7D4 RT/WM vs RT/RT subjects (p<0.05, chi-square test) | proportion of subjects anosmic, RT/P79L vs RT/RT subjects (p=0.018, chi-square analysis)
C[C@@]12C=CC[C@H]1[C@@H]1CCC3=CC(=O)CC[C@]3(C)[C@H]1CC2 [androstadienone, androsta-4,16-dien-3-one] | higher | lower | higher detection thresholds | – | –
C[C@]12CCC(=O)C[C@@H]1CC[C@@H]1[C@@H]2CC[C@]2(C)C=CC[C@@H]12 [androstenone, 5α-androst-16-en-3-one] | higher | lower | higher detection thresholds | greater incidence | lower

Reference: US8298781B2, “Compositions and methods for characterizing and regulating olfactory sensation” (Duke University, priority 2007, dated 2012)
